In patent US20190321493A1, “MATERIALS AND METHODS FOR TREATING REGIONAL PAIN” (priority 2016, published 2019):

Key:
[1] = Drug distribution in DRG after convection enhanced delivery of DAPI; assay type: in vivo, swine; details: FIG. 5
Description: FIGS. 5A-5C illustrate drug distribution in swine DRG. […] is a schematic of convection enhanced delivery (CED) needle placement in a DRG. FIG. 5B contains an image of a control DRG. FIG. 5C contains an image of a 4′,6-diamidino-2-phenylindole (DAPI) injected DRG.
An incision was made in the overlying skin at an anatomical level affected by pain in a patient. The subcutaneous fat and musculature were incised and reflected, exposing the bony lamina. Using appropriate instruments, a portion of the lamina was removed to expose the neural elements. The meningeal sleeve surrounding the DRG and spinal nerve was surgically exposed by microdissection of bone and tissue, which may require extending the laminectomy dissection, using standard techniques such as blunt or sharp dissection with meticulous hemostasis. Thereby the DRG was exposed and grossly visualized. A convection enhanced delivery needle was placed into the exposed DRG. RTXcap was injected in a preparation that also contains a contrast agent (e.g., in this case DAPI) allowing direct visualization of analgesic agent injection by eye sight with or without a surgical loupe or surgical operating microscope.

[2] = test system: nociceptive neurons of the dorsal root ganglion (DRG); assay: MRI-guided intraganglionic injection of RTX (RTXcap) with gadoteridol into swine DRG, substance P immunohistochemistry; assay type: in vivo
Description: FIGS. 1A-1D are fluorescent immunohistochemistry (IHC) images. […] Nociceptive fibers in all panels are visualized using the biomarker substance P (sP).
FIGS. 2A-2C are fluorescent IHC images of a DRG. […] The outcomes in FIG. 2B and FIG. 2C were predicted from intraprocedural imaging performed during RTX delivery (noted as a success (B) and failure (C) to achieve the intended contrast media dispersion).
Domestic swine were chosen because the porcine lumbar spinal column resembles the human lumbosacral anatomy. Swine were sedated with Telazol and Xylazine, intubated and kept under deep isoflurane inhalation anesthesia for the duration of the procedure titrated to effect. Swine were placed in an MRI scanner (GE 3T, GE Healthcare). Overview MRI imaging was obtained of the lumbosacral spine. DRG at the L4, L5, S1, and S2 level were outlined (FIG. 1A).
The guide needle was passed through the skin lateral to the midline and incrementally advanced ventromedially toward the DRG intraprocedural MRI imaging monitored advancement of the needle, and any deviations from the optimal trajectory were corrected. When the needle tip was visualized directly adjacent to the dorsal aspect of the DRG, the stylet of the guide needle was withdrawn. The stepped stylet was then inserted through the guide needle. The length of the stepped stylet exceeded the length of the guide needle and therefore only the stepped tip of the stylet but not the Quincke tip of the guide needle penetrated the DRG parenchyma. The stepped stylet was then withdrawn and replaced by the stepped needle. The prior insertion of the stepped stylet prevented clogging of the narrow needle tip. RTX 5 μg and gadoteridol 1% V/V was injected in a volume of 50 μl per DRG over a period of 5 minutes (RTX was solubilized in water with sulfobutyl ether β-cyclodextrin, designated as RTXcap). MRI imaging verified when the injection was successful and when the injection needed to be repeated (FIG. 4). Pigs were sacrificed 5 weeks post injection and the tissues harvested for histopathological analysis.

[3] = test system: nociceptive fibers in the dorsal horn of the spinal cord; assay: Periganglionic (epidural) injection of RTX, immunohistochemistry of spinal cord dorsal horn; assay type: in vivo, swine; details: FIG. 3B vs 3A

Row | Structure (SMILES) | distribution in DRG [1] | neurolysis of the targeted tissue ([2]; RTX 5 μg + gadoteridol 1% V/V, 50 μl per DRG, tissues 5 weeks post injection) | nociceptive neurons (sP fluorescence) in DRG ([2]; after failed image-guided injection, FIG. 2C) | nociceptive neurons (sP fluorescence) in DRG ([2]; after successful MRI-guided injection, FIG. 2B) | nociceptive fibers (substance P) in the dorsal horn of the spinal cord ([2]; intraganglionic injection, RTX solubilized in water with sulfobutyl ether β-cyclodextrin, FIG. 1B vs 1A) | nociceptive fibers (substance P) in the dorsal root ganglion ([2]; intraganglionic injection, RTX solubilized in water with sulfobutyl ether β-cyclodextrin, FIG. 1D vs 1C) | nociceptive fibers in the dorsal horn of the spinal cord [3]
1 | N=C(N)c1ccc(-c2cc3ccc(C(=N)N)cc3[nH]2)cc1 [DAPI, 4′,6-diamidino-2-phenylindole] | good distribution throughout the DRG | – | – | – | – | – | –
2 | C=C(C)[C@]12C[C@@H](C)[C@@]34O[C@](Cc5ccccc5)(O[C@@H]1[C@@H]3C=C(COC(=O)Cc1ccc(O)c(OC)c1)C[C@]1(O)C(=O)C(C)=C[C@@H]41)O2 [RTX, resiniferatoxin] | – | can result in neurolysis of the targeted tissue | normal numbers of nociceptive neurons | elimination of most nociceptive neurons | elimination of nociceptive fibers | elimination of nociceptive fibers | elimination of nociceptive fibers
